# Laboratory results published in ChEMBL document CHEMBL5625200 (Eur J Med Chem, 2023).
# Activity calls are given as the source filed them. The rule behind the calls is not given here.
# Columns and labels:
# [1] = tested on: Rattus norvegicus; experiment: Antihypertensive activity against MCT-induced Wistar albino rat PAH model assessed as decreased mean pulmonary arterial pressure at 300 mg/kg, sc administered for 21 days (reference value: 19.18 +/- 0.360 mmHg); format: functional; settings: time 21 day
# [2] = tested on: Rattus norvegicus; experiment: Antioxidant activity against MCT-induced Wistar albino rat assessed as increase in SOD level at 150 mg/kg, sc by biochemical analysis (reference value: 19.15 +/- 0.21 U/mg); format: functional
# [3] = tested on: Rattus norvegicus; experiment: Antihypertensive activity against MCT-induced Wistar albino rat PAH model assessed as decreased right ventricular hypertrophy at 150 mg/kg, sc administered for 21 days (reference value: 0.42 +/- 0.020 […]); format: functional; settings: time 21 day
# [4] = tested on: Rattus norvegicus; experiment: Antihypertensive activity against MCT-induced Wistar albino rat PAH model assessed as decreased right ventricular hypertrophy at 300 mg/kg, sc administered for 21 days (reference value: 0.42 +/- 0.020 […]); format: functional; settings: time 21 day
# [5] = tested on: Rattus norvegicus; experiment: Antioxidant activity against MCT-induced Wistar albino rat assessed as increase in GSH level at 300 mg/kg, sc by biochemical analysis (reference value: 12.21 +/- 0.34 U/mg); format: functional
# [6] = tested on: Rattus norvegicus; experiment: Antihypertensive activity against MCT-induced Wistar albino rat assessed as reduction in HIF1alpha level at 150 mg/kg, sc by ELISA analysis (reference value: 312.00 +/- 1.36 ng/ml); format: functional
# [7] = tested on: Rattus norvegicus; experiment: Antihypertensive activity against MCT-induced Wistar albino rat assessed as decrease in ET-beta expression by measuring fold change at 300 mg/kg, sc by quantitative RT-PCR analysis (reference value: 15.17); format: functional
# [8] = tested on: Rattus norvegicus; experiment: Antihypertensive activity against MCT-induced Wistar albino rat PAH model assessed as decreased mean pulmonary arterial pressure at 150 mg/kg, sc administered for 21 days (reference value: 19.18 +/- 0.360 mmHg); format: functional; settings: time 21 day
# [9] = tested on: Rattus norvegicus; experiment: Antioxidant activity against MCT-induced Wistar albino rat assessed as reduction in TBARS level at 150 mg/kg, sc by biochemical analysis (reference value: 123.03 +/- 0.47 micromol); format: functional
# [10] = tested on: Rattus norvegicus; experiment: Antihypertensive activity against MCT-induced Wistar albino rat PAH model assessed as decreased right ventricular systolic pressure at 300 mg/kg, sc administered for 21 days (reference value: 55.19 +/- 0.026 mmHg); format: functional; settings: time 21 day
# [11] = tested on: Rattus norvegicus; experiment: Antihypertensive activity against MCT-induced Wistar albino rat PAH model assessed as decreased right ventricular systolic pressure at 150 mg/kg, sc administered for 21 days (reference value: 55.19 +/- 0.026 mmHg); format: functional; settings: time 21 day
# [12] = tested on: Rattus norvegicus; experiment: Antihypertensive activity against MCT-induced Wistar albino rat assessed as presence of lung vasculitis at 150 to 300 mg/kg, sc by hematoxylin and eosin staining based microscopic analysis; format: functional, organism-based; settings: dose 150-300 mg/kg
# [13] = tested on: Rattus norvegicus; experiment: Antihypertensive activity against MCT-induced Wistar albino rat assessed as decrease in COX-2 expression by measuring fold change at 300 mg/kg, sc by quantitative RT-PCR analysis (reference value: 32.22); format: functional
# [14] = tested on: Rattus norvegicus; experiment: Antihypertensive activity against MCT-induced Wistar albino rat assessed as increase in lung eNOS expression at 300 mg/kg, sc by Western blotting analysis; format: functional, organism-based
# [15] = tested on: Rattus norvegicus; experiment: Antihypertensive activity against MCT-induced Wistar albino rat assessed as decrease in lung COX-2 expression at 300 mg/kg, sc by Western blotting analysis; format: functional, organism-based
# [16] = tested on: Rattus norvegicus; experiment: Antihypertensive activity against MCT-induced Wistar albino rat assessed as increase in eNOS expression by measuring fold change at 300 mg/kg, sc by quantitative RT-PCR analysis (reference value: 0.002); format: functional
# [17] = tested on: Rattus norvegicus; experiment: Antihypertensive activity against MCT-induced Wistar albino rat assessed as increase in lung SGC expression at 300 mg/kg, sc by Western blotting analysis; format: functional, organism-based
# [18] = tested on: Rattus norvegicus; experiment: Antihypertensive activity against MCT-induced Wistar albino rat assessed as reduction in ANP level at 300 mg/kg, sc by ELISA analysis (reference value: 358.00 +/- 1.24 pg/ml); format: functional
# [19] = tested on: Rattus norvegicus; experiment: Antioxidant activity against MCT-induced Wistar albino rat assessed as increase in GSH level at 150 mg/kg, sc by biochemical analysis (reference value: 12.21 +/- 0.34 U/mg); format: functional
# [20] = tested on: Rattus norvegicus; experiment: Antihypertensive activity against MCT-induced Wistar albino rat assessed as reduction in TNNI3 level at 300 mg/kg, sc by ELISA analysis (reference value: 3.42 +/- 0.12 pg/ml); format: functional
# [21] = tested on: Rattus norvegicus; experiment: Antihypertensive activity against MCT-induced Wistar albino rat assessed as reduction in ANP level at 150 mg/kg, sc by ELISA analysis (reference value: 358.00 +/- 1.24 pg/ml); format: functional
# [22] = tested on: Rattus norvegicus; experiment: Antihypertensive activity against MCT-induced Wistar albino rat assessed as reduction in HIF1alpha level at 300 mg/kg, sc by ELISA analysis (reference value: 312.00 +/- 1.36 ng/ml); format: functional
# [23] = tested on: Rattus norvegicus; experiment: Antioxidant activity against MCT-induced Wistar albino rat assessed as increase in SOD level at 300 mg/kg, sc by biochemical analysis (reference value: 19.15 +/- 0.21 U/mg); format: functional
# [24] = tested on: Rattus norvegicus; experiment: Antioxidant activity against MCT-induced Wistar albino rat assessed as reduction in TBARS level at 300 mg/kg, sc by biochemical analysis (reference value: 123.03 +/- 0.47 micromol); format: functional
# [25] = tested on: Rattus norvegicus; experiment: Antihypertensive activity against MCT-induced Wistar albino rat assessed as decrease in ET-alpha expression by measuring fold change at 300 mg/kg, sc by quantitative RT-PCR analysis (reference value: 32.14); format: functional
# [26] = tested on: Rattus norvegicus; experiment: Antihypertensive activity against MCT-induced Wistar albino rat assessed as decrease in mPGES-1 expression by measuring fold change at 300 mg/kg, sc by quantitative RT-PCR analysis (reference value: 10.99); format: functional
# [27] = tested on: Rattus norvegicus; experiment: Antihypertensive activity against MCT-induced Wistar albino rat assessed as increase in SGC expression by measuring fold change at 300 mg/kg, sc by quantitative RT-PCR analysis (reference value: 0.01); format: functional
# [28] = tested on: Rattus norvegicus; experiment: Antioxidant activity against MCT-induced Wistar albino rat assessed as increase in catalase level at 300 mg/kg, sc by biochemical analysis (reference value: 0.26 +/- 0.05 U/mg); format: functional
# [29] = tested on: Rattus norvegicus; experiment: Antihypertensive activity against MCT-induced Wistar albino rat assessed as reduction in TNNI3 level at 150 mg/kg, sc by ELISA analysis (reference value: 3.42 +/- 0.12 pg/ml); format: functional
# [30] = tested on: Rattus norvegicus; experiment: Antihypertensive activity against MCT-induced Wistar albino rat assessed as decrease in lung mPGES-1 expression at 300 mg/kg, sc by Western blotting analysis; format: functional, organism-based
# [31] = biological target: T1, Endothelin-1 receptor (Homo sapiens, UniProt P25101); experiment: Antagonist activity against human ET-1 by ELISA analysis; format: functional
# T1 sequence (P25101 whole entry): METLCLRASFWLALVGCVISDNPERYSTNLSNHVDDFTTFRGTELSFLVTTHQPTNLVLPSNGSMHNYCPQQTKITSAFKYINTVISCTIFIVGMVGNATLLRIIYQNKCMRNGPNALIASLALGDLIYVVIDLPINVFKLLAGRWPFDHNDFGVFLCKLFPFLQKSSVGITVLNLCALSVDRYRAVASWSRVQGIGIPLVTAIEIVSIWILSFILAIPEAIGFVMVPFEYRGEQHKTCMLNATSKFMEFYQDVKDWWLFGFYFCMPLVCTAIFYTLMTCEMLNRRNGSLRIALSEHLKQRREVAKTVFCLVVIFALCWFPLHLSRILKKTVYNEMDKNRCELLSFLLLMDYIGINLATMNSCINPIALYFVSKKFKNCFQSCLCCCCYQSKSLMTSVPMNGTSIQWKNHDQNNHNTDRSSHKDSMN
# [32] = tested on: Rattus norvegicus; experiment: Antioxidant activity against MCT-induced Wistar albino rat assessed as increase in catalase level at 150 mg/kg, sc by biochemical analysis (reference value: 0.26 +/- 0.05 U/mg); format: functional
# [33] = tested on: Rattus norvegicus; experiment: Antihypertensive activity against MCT-induced Wistar albino rat PAH model assessed as reduction in peribronchial and interstitial inflammatory infiltrates and inter-alveolar vascular spaces at 150 to 300 mg/kg, sc by hematoxylin and eosin staining based microscopic analysis; format: functional, organism-based; settings: dose 150-300 mg/kg
# [34] = tested on: Rattus norvegicus; experiment: Antihypertensive activity against MCT-induced Wistar albino rat assessed as reduction of arterial wall thickening in peribronchial arteries at 150 to 300 mg/kg, sc by hematoxylin and eosin staining based microscopic analysis; format: functional, organism-based; settings: dose 150-300 mg/kg
Compound,Activity [1],Activity [2],Activity [3],Activity [4],Activity [5],Activity [6],fold change (FC) [7],Activity [8],Activity [9],Activity [10],Activity [11],fold change (FC) [13],Activity [14],Activity [15],fold change (FC) [16],Activity [17],Activity [18],Activity [19],Activity [20],Activity [21],further results
CC/C=C/CCOc1nc(-c2ncccn2)nc(NS(C)(=O)=O)c1Oc1ccccc1OC,13.93 mmHg,25.43 U/mg,0.29,0.25,19.81 U/mg,163.12 ng/mL,3.24,17.16 mmHg,102.23 µmol,27.12 mmHg,33.18 mmHg,2.43,Active,Active,0.15,Active,245 pg/mL,14.02 U/mg,2.36 pg/mL,261.12 pg/mL,Activity [12]: Active; Activity [22]: 146 ng/mL; Activity [23]: 32.14 U/mg; Activity [24]: 89 µmol; fold change (FC) [25]: 0.62; fold change (FC) [26]: 1.19; fold change (FC) [27]: 0.38; Activity [28]: 0.95 U/mg; Activity [29]: 2.67 pg/mL; Activity [30]: Active; IC50 [31]: 0.26 nM; Activity [32]: 0.68 U/mg
COc1ccccc1Oc1c(NS(=O)(=O)c2ccccc2)nc(-c2ncccn2)nc1OCC1CCCN1C (stereo unspecified),10.12 mmHg,31.12 U/mg,0.27,0.24,22.72 U/mg,158.12 ng/mL,1.04,13.11 mmHg,88.12 µmol,23.16 mmHg,29.08 mmHg,2.91,Active,Active,0.37,Active,238.08 pg/mL,17.27 U/mg,2.1 pg/mL,252.13 pg/mL,Activity [33]: Active; Activity [22]: 132.21 ng/mL; Activity [23]: 40.21 U/mg; Activity [24]: 73.12 µmol; fold change (FC) [25]: 1.38; fold change (FC) [26]: 1.07; fold change (FC) [27]: 0.18; Activity [28]: 1.05 U/mg; Activity [29]: 2.32 pg/mL; Activity [30]: Active; IC50 [31]: 0.22 nM; Activity [32]: 0.81 U/mg
COc1ccccc1Oc1c(NS(C)(=O)=O)nc(-c2ncccn2)nc1OCCC(C)C,9.02 mmHg,38.21 U/mg,0.26,0.23,28.09 U/mg,139 ng/mL,0.34,11.18 mmHg,78.12 µmol,21.11 mmHg,26.82 mmHg,1.81,Active,Active,0.63,Active,224 pg/mL,21.92 U/mg,1.84 pg/mL,241.2 pg/mL,Activity [34]: Active; Activity [22]: 121 ng/mL; Activity [23]: 46.01 U/mg; Activity [24]: 69.82 µmol; fold change (FC) [25]: 0.44; fold change (FC) [26]: 0.81; fold change (FC) [27]: 0.49; Activity [28]: 1.21 U/mg; Activity [29]: 1.94 pg/mL; Activity [30]: Active; IC50 [31]: 0.18 nM; Activity [32]: 1.09 U/mg
